Values quoted from earlier work, collected in patent publication US20040202705A1 (priority 1999, published 2004).

Conditions: human, in vivo

In the case of Nc1c2c(nc3ccccc13)CCCC2 [Tacrine], the “Patients with reversible hepatotoxicity” value is listed as “approximately 30%”.
